Usually IC50 stands for the concentration that gives 50% inhibition.

The target in the test is Alpha-glucosidase MAL32 (Saccharomyces cerevisiae (strain ATCC 204508 / S288c), UniProt P38158). The experiment in a line: In Vitro α-Glucosidase Inhibitory Assay. The note with it: pH 6.8; 37 °C. The protocol: The α-glucosidase inhibition assay had been carried out using baker's yeast α-glucosidase (EC 3.2.1.20) and p-nitrophenyl α-d-glucopyranoside. The test compounds were dissolved in DMSO to prepare the required distributing concentration. α-Glucosidase inhibitory activity was assayed by using 0.1 M phosphate buffer (pH 6.8) at 37 °C. The enzyme (0.1 U/mL) in phosphate buffer saline was incubated with various concentrations of test compounds at 37 °C for 15 min. […] After further incubation at 37 °C for 30 min. […] The sample solution was replaced by DMSO as a control. Acarbose was used as a positive control. All experiments were carried out in triplicates.
Chain of Alpha-glucosidase MAL32 (P38158 whole entry): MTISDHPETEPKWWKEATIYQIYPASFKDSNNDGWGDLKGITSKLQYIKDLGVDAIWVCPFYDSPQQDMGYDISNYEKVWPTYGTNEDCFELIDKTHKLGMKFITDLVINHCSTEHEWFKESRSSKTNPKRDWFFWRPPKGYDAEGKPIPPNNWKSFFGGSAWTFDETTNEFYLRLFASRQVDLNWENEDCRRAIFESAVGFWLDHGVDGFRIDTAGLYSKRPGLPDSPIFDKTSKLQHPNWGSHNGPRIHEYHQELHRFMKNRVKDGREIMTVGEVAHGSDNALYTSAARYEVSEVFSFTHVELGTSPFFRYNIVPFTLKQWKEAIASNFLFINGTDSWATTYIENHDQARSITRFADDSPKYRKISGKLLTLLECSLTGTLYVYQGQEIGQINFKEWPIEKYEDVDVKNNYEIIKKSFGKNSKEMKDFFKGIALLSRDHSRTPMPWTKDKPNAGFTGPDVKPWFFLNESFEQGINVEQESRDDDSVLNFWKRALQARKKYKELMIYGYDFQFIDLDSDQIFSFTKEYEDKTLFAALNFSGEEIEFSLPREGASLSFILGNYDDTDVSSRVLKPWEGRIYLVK

Regarding `O=C1Nc2ccccc2C1(c1cn(Cc2ccccc2Cl)c2ccccc12)c1cn(Cc2ccccc2Cl)c2ccccc12` [1,1''-bis(2-Chlorobenzyl)-[3,3':3',3''-terindolin]-2'-one (4i)], the IC50 worked out at 7.31 µM.

In turn, `Cc1ccc2c(c1)C(c1c[nH]c3ccccc13)(c1c[nH]c3ccccc13)C(=O)N2` [5'-Methyl-1H,1''H-[3,3':3',3''-terindol]-2'(1'H)-one (4d)] gave an IC50 of 30.1 µM. This IC50 is about 4.1-fold higher than that of the compound before.

As to `O=C1Nc2ccccc2C1(c1c[nH]c2ccccc12)c1c[nH]c2ccccc12` [1H,1''H-[3,3':3',3''-terindol]-2'(1'H)-one (4a)], it took 146 µM to reach half-maximal inhibition (IC50).

As to `CCCCn1cc(C2(c3cn(CCCC)c4ccccc34)C(=O)Nc3ccccc32)c2ccccc21` [1,1''-Dibutyl-[3,3':3',3''-terindolin]-2'-one (4m)], the IC50 was 13.6 µM.

Compound `O=C1Nc2ccccc2C1(c1cn(Cc2ccc(Br)cc2)c2ccccc12)c1cn(Cc2ccc(Br)cc2)c2ccccc12` [1,1''-bis(4-Bromobenzyl)-1H,1''H-[3,3':3',3''-terindol]-2'(1'H)-one (4h)] yielded an IC50 of 9.16 µM.

For the compound `CC(C)Cn1cc(C2(c3cn(CC(C)C)c4ccccc34)C(=O)Nc3ccccc32)c2ccccc21` [1,1''-Diisobutyl-[3,3':3',3''-terindolin]-2'-one (4n)], 14.8 µM corresponded to half-maximal inhibition (IC50). Compared with the last compound, the IC50 is about 1.6-fold higher.

In turn, `CCCn1cc(C2(c3cn(CCC)c4ccccc34)C(=O)Nc3ccccc32)c2ccccc21` [1,1''-Dipropyl-[3,3':3',3''-terindolin]-2'-one (4k)] returned an IC50 of 11 µM.

In turn, `O=C1Nc2ccccc2C1(c1cn(Cc2cccc(F)c2)c2ccccc12)c1cn(Cc2cccc(F)c2)c2ccccc12` [1,1''-bis(3-Fluorobenzyl)-1H,1''H-[3,3':3',3''-terindol]-2'(1'H)-one (4g)] returned an IC50 of 7.92 µM. This IC50 and that of the compound before are within 1.5-fold of each other.

`O=C1Nc2ccc(Br)cc2C1(c1c[nH]c2ccccc12)c1c[nH]c2ccccc12` [5'-Bromo-1H,1''H-[3,3':3',3''-terindol]-2'(1'H)-one (4b)]: the IC50 worked out at 20.5 µM.

`CC(C)n1cc(C2(c3cn(C(C)C)c4ccccc34)C(=O)Nc3ccccc32)c2ccccc21` [1,1''-Diisopropyl-[3,3':3',3''-terindolin]-2'-one (4l)] came in with an IC50 of 10.3 µM.

`Cn1cc(C2(c3cn(C)c4ccccc34)C(=O)Nc3ccccc32)c2ccccc21` [1,1''-Dimethyl-1H,1''H-[3,3':3',3''-terindol]-2'(1'H)-one (4e)] had an IC50 of 13.7 µM.

In the case of `O=C1Nc2ccccc2C1(c1cn(Cc2ccccc2F)c2ccccc12)c1cn(Cc2ccccc2F)c2ccccc12` [1,1''-bis(2-Fluorobenzyl)-[3,3':3',3''-terindolin]-2'-one (4j)], 5.98 µM corresponded to half-maximal inhibition (IC50). This IC50 is about 2.3-fold lower than that of the compound before.

For the compound `O=C1Nc2ccccc2C1(c1cn(Cc2ccccc2)c2ccccc12)c1cn(Cc2ccccc2)c2ccccc12` [1,1''-Dibenzyl-1H,1''H-[3,3':3',3''-terindol]-2'(1'H)-one (4f)], the IC50 stood at 9.83 µM.

For the origin of these results see BindingDB's records for doi:10.7270/Q2DV1HSV (Jishou University, 2017).
